This is an account of results in ChEMBL document CHEMBL1201862, “PubChem BioAssay data set” (2004).

The structures appear in SMILES notation.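 All cell lines were grown in 96-well plates and treated with compound for 48 hours. GI50 is the concentration that inhibits growth by half.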 The source made the active and inactive calls. No stated cut-off is given here; in the data, active = GI50 up to about 1.1 µM and inactive = higher. Peptide text beside a SMILES is read from it. * marks the point of attachment. Cbz = O=C(OCc1ccccc1)*; CH2Cl = ClC* A value given as a limit tells only on which side of the number the result lay.

Common to all, as to experiment: DTP human tumour cell line panel, 48 h
Test [1] deals with 786-0.
The test system of test [2] is A498.
Test [3] concerns BT-549.
For test [4], the system named is CCRF-CEM.
The test system of test [5] is HCC 2998.
Test [6] deals with HL-60.
Test [7] has as its system MCF7.
Test [8] concerns MOLT-4.
In test [9] the test system is Malme-3M.
Test [10] deals with NCI-H23.
For test [11], the system named is NCI-H460.
For test [12], the system named is NCI-H522.
The test system of test [13] is NCI/ADR-RES.
The subject of test [14] is OVCAR-4.
Test [15] concerns OVCAR-5.
Test [16] has as its system SF-539.
The test system of test [17] is SN12C.
For test [18], the system named is SNB-75.
Test [19] concerns T47D.
In test [20] the test system is TK-10.

A word on the GI50: it is the concentration that inhibits growth by half.

As to `CCCCCCCCCCCCCCCCCCNC(=O)OCC(CNS(=O)(=O)CCC[n+]1cccc2ccccc21)COC` (stereo not given), the GI50 in test [1] was 3.45 µM (inactive); in test [2] it was 10.9 µM (inactive); in [3], 2.18 µM (inactive); in [4], 1.06 µM (active); in test [5] it was 1.34 µM (inactive); in test [6], 1.23 µM (inactive). For the same compound, the GI50 is 1.55 µM (inactive) in [7]; 1.11 µM (active) in test [8]; 3.74 µM (inactive) in [9]; 1.16 µM (inactive) in [10]; 1.34 µM (inactive) in test [11]; 1.02 µM (active) in [12]. The GI50 is 18.5 µM (inactive) in test [13]; 1.31 µM (inactive) in [14]; 2.13 µM (inactive) in [15]; 2.01 µM (inactive) in test [16]; 1.56 µM (inactive) in [17]; 2.47 µM (inactive) in test [18]. The GI50 in test [19] was 3.88 µM (inactive); in test [20], 3.4 µM (inactive).
For `O=c1[nH]nc(-c2ccccc2)n1-c1ccncc1`, the GI50 in test [1], in test [2], in test [3], in test [4], in test [5] and in [6] was > 100 µM (inactive) in each case. The GI50 in test [7], in test [8], in test [9], in [10], in test [11] and in [12] was > 100 µM (inactive) each time. For the same compound, the GI50 in test [13], in test [14], in [15], in test [16], in test [17] and in test [18] was > 100 µM (inactive) throughout. The GI50 in test [19] and in test [20] was > 100 µM (inactive) in each case.
Consider `CC(=O)O[C@@H]1[C@H]2O[C@H]2[C@H]2O[C@@]2(COC(=O)c2ccccc2)[C@H]1OC(C)=O`, for which the GI50 in test [1], in test [2], in test [3], in test [4], in [5] and in [6] was > 100 µM (inactive) in each case. Besides, the GI50 in [7] was > 100 µM (inactive); in test [8], 32.1 µM (inactive); in test [9], > 100 µM (inactive); in test [10], > 100 µM (inactive); in test [11], 34.2 µM (inactive); in test [12] it was > 100 µM (inactive). For the same compound, the GI50 in test [13], in [14], in test [15], in [16], in [17] and in [18] was > 100 µM (inactive) throughout. Moreover, the GI50 in test [19] and in [20] was > 100 µM (inactive) each time.
On to `c1c[nH]c(C23C4C5C6C4C2C6C53)n1` (stereo not given), for which the GI50 in [1], in test [2], in test [3], in test [4], in [5] and in [6] was > 100 µM (inactive) throughout. Further, the GI50 in [7], in test [8], in [9], in test [10], in test [11] and in [12] was > 100 µM (inactive) in each case. The GI50 in test [13] is > 100 µM (inactive); in [14], 30.6 µM (inactive); in test [15], > 100 µM (inactive); in test [16] it was > 100 µM (inactive); in test [17], > 100 µM (inactive); in test [18] it was > 100 µM (inactive). For the same compound, the GI50 in [19] and in [20] was > 100 µM (inactive) in each case.
As to `N#Cc1ccc(NC(=O)C(CC(=O)OCc2ccccc2)NC(=O)OCc2ccccc2)cc1` (stereo not given), the GI50 in [1] was > 10 µM (inactive); in test [2] it was > 10 µM (inactive); in test [3], > 10 µM (inactive); in test [4] it was > 10 µM (inactive); in test [5], 93.3 µM (inactive); in test [6], > 10 µM (inactive). The GI50 in test [7] is > 10 µM (inactive); in test [8], > 10 µM (inactive); in test [9], 5.74 µM (inactive); in test [10], > 10 µM (inactive); in test [11], > 10 µM (inactive); in test [12] it was > 10 µM (inactive). For the same compound, the GI50 in test [13], in [14], in test [15], in test [16], in [17] and in [18] was > 10 µM (inactive) throughout. For the same compound, the GI50 in [19] and in [20] was > 10 µM (inactive) each time.
Turning to `C=CCN1C(=O)/C(=C/c2ccco2)N=C1SC/C=C/C`, the GI50 in [1] was 28.2 µM (inactive); in [2], 43.3 µM (inactive); in test [3], 40.2 µM (inactive); in test [4] it was 45.9 µM (inactive); in test [5], 93.8 µM (inactive); in test [6] it was 28.2 µM (inactive). The GI50 was 18.6 µM (inactive) in [7]; 19.5 µM (inactive) in test [8]; 44.4 µM (inactive) in test [9]; 50.9 µM (inactive) in test [10]; 57.9 µM (inactive) in test [11]; 34 µM (inactive) in [12]. Also, the GI50 in [13] was 37.1 µM (inactive); in [14], 60.5 µM (inactive); in [15] it was > 100 µM (inactive); in [16], > 100 µM (inactive); in test [17], 23.5 µM (inactive); in test [18], 33.8 µM (inactive). For the same compound, the GI50 was 43.6 µM (inactive) in test [19] and > 100 µM (inactive) in [20].
Regarding `CC(C)CC(NC(=O)OCc1ccccc1)C(=O)NC(Cc1ccccc1)C(=O)CCl` (stereo not drawn) (Cbz-Leu-Phe-CH2Cl; configuration not given here), the GI50 in test [1] is 1.66 µM (inactive); in test [2], 23.6 µM (inactive); in [3] it was 2.47 µM (inactive); in test [4], 0.204 µM (active); in [5], 13.2 µM (inactive); in test [6] it was 1.33 µM (inactive). The GI50 in [7] was 2.55 µM (inactive); in test [8], 0.664 µM (active); in test [9], 1.92 µM (inactive); in test [10] it was 2.03 µM (inactive); in [11] it was 6.5 µM (inactive); in test [12] it was 1.38 µM (inactive). For the same compound, the GI50 in test [13] is 2.44 µM (inactive); in [14], 2.08 µM (inactive); in [15], 3.71 µM (inactive); in [16] it was 3.32 µM (inactive); in test [17] it was 1.77 µM (inactive); in test [18], 4.78 µM (inactive). Besides, the figures for the GI50 in test [19] and in [20] were 2.21 µM (inactive) and 1.82 µM (inactive), respectively.
